The experiment relates to Clone No. 38 tumor. As to the kind of experiment: Anti-tumor effect by short-term tissue assay in tumor-bearing mice (titled cytotoxic activity). In kind it is in vivo. As to conditions: mice with Clone No. 38 tumor; for OD (minimum dose of brine injection administered by peritoneal injection and causing activity): peritoneal injection in brine, dose raised in 1.5-fold steps to maximum tolerated dose; for Activity (necrosis of tumor cross section): peritoneal injection, short-term tissue assay. The method, then: Cytotoxic activity of the compounds represented by formula (I) was measured by the following method.
Clone No. 38 tumor was obtained from Mason Research Inc. and injected into experimental mice. […] Each dosage level was measured independently at least two times (commonly, three times). For each measurement, each group had five mice. The anti-tumor effect of the compounds was measured through short-term tissue assay.
OD refers to the minimum dose (mg/Kg) of brine injection administered by peritoneal injection and causing activity; ++ refers to >90% of cross section is necrotic.

Molecules are shown by their SMILES.

The record followed here is patent US8350065B2, “5,6-dimethyl xanthone-4-acetic acid derivatives and method of preparing the same” (Grand Pharma (China) Co., Ltd., priority 2008, dated 2013).

With `Cc1ccc2c(=O)c3cccc(CC(=O)O)c3oc2c1C` [NO 1, 5,6-dimethyl xanthone-4-acetic acid], the “OD (minimum dose of brine injection administered by peritoneal injection and causing activity)” value (“OD” for short) was determined as 30 mg/kg; the “Activity (necrosis of tumor cross section)” value was “++ (>90% of cross section is necrotic)”.

`Cc1cc(C)c2c(=O)c3cccc(CC(=O)O)c3oc2c1C` [NO 4, 5,6,8-trimethylxanthone-4-acetic acid]: the “OD” value was found to be 30 mg/kg; the “Activity (necrosis of tumor cross section)” value is given as “++ (>90% of cross section is necrotic)”.

Regarding `Cc1cc2c(=O)c3cccc(CC(=O)O)c3oc2c(C)c1C` [NO 3, 5,6,7-trimethylxanthone-4-acetic acid], the “OD” value was found to be 30 mg/kg; the “Activity (necrosis of tumor cross section)” value is reported as “++ (>90% of cross section is necrotic)”.

Turning to `Cc1cc(CC(=O)O)c2oc3c(C)c(C)ccc3c(=O)c2c1` [NO 2, 2,5,6-trimethyl xanthone-4-acetic acid], the “OD” value stood at 25 mg/kg; the “Activity (necrosis of tumor cross section)” value was “++ (>90% of cross section is necrotic)”.
